Measurements as given in patent publication US20060004087A1, “Tetracyclic compounds as estrogen ligands” (Wyeth, priority 2004, published 2006).

Experiments:
human ERα = biological target: T1, human ERα (Homo sapiens, UniProt P03372); test: Competition with [3H]-17β-estradiol for ERα ligand binding domain; settings: E. coli lysate expressing ER ligand binding domains (D, E, & F); 2 nM [3H]-17β-estradiol; 5-15 hours at room temperature
T1 construct: made in house; host or cells: E. coli (crude lysate)
T1 sequence (P03372 311-547 limits assumed): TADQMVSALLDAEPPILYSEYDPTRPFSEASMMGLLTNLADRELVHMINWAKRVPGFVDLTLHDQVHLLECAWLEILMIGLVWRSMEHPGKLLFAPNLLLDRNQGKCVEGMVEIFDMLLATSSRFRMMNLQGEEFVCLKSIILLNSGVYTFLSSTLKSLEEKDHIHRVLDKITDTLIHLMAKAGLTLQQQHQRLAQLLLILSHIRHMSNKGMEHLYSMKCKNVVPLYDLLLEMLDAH
Experimental: (§1) This test procedure provides the methodology for one to determine whether a particular compound binds to the ER (and is therefore, “estrogenic”) and whether there is selectivity for ERα or ERβ. […] The procedure used is described briefly below. A crude lysate of E. coli expressing the ER ligand binding domains (D, E, & F) of human ERα or ERβ was prepared. Both ERs and compounds were diluted in 1× Dulbecco's Phosphate Buffered Saline (DPBS) supplemented with 1 mM EDTA. […] After between 5 and 15 hours at room temperature, the plates were washed with DPBS/1 mM EDTA and bound radioactivity determined by liquid scintillation counting.

human ERβ = biological target: T2, human ERβ (Homo sapiens, UniProt Q92731); test: Competition with [3H]-17β-estradiol for ERβ ligand binding domain; settings: E. coli lysate expressing ER ligand binding domains (D, E, & F); 2 nM [3H]-17β-estradiol; 5-15 hours at room temperature
T2 construct: made in house; host or cells: E. coli (crude lysate)
T2 sequence (Q92731 264-498 limits assumed): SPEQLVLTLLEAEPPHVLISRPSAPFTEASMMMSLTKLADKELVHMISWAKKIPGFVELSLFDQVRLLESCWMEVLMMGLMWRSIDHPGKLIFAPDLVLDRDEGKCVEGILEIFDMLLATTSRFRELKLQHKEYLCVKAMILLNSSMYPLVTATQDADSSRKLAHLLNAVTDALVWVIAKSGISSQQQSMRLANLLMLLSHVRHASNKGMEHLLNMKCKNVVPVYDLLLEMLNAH
Experimental: as §1

| Compound | melting point [°C] | IC50 (human ERα) [nM] | IC50 (human ERβ) [nM] |
| --- | --- | --- | --- |
| N#Cc1c(O)ccc2c3c(oc12)-c1ccc(O)cc1CC3 [Example 6, 3,9-DIHYDROXY-5,6-DIHYDRO-BENZO[B]NAPHTHO[2,1-D]FURAN-10-CARBONITRILE] | > 300 | 82 | 5 |
| 2,9-DIHYDROXY-5,6-DIHYDRO-BENZO[B]NAPHTHO[2,1-D]FURAN-10-BENZONITRILE [Example 12] | – | 2790 | 757 |
| Oc1ccc2c(c1)oc1c3ccc(O)cc3c(Br)cc21 [Example 3, 5-BROMO-BENZO[B]NAPHTHO[2,1-D]FURAN-3,9-DIOL] | – | 70 | 12 |
| Oc1ccc2c(c1)OCc1c-2oc2ccc(O)cc12 [Example 9, 6H-BENZO[4,5]FURO[3,2-C]CHROMEN-3,8-DIOL] | – | 129 | 4 |
| N#Cc1cc(O)cc2c3c(oc12)-c1ccc(O)cc1OC3 [Example 10, 3,8-DIHYDROXY-6H-BENZO[4,5]FURO[3,2-C]CHROMENE-10-CARBONITRILE] | – | 159 | 2 |
| N#Cc1c(O)ccc2c1oc1c3cc(O)ccc3ccc21 [Example 13, 2,9-DIHYDROXY-BENZO[B]NAPHTHO[2,1-D]FURAN-10-CARBONITRILE] | 291 to 295 | – | – |
| N#Cc1cc(O)cc2c3c(oc12)-c1ccc(O)cc1CC3 [Example 4, 3,8-DIHYDROXY-5,6-DIHYDRO-BENZO[B]NAPHTHO[2,1-D]FURAN-10-CARBONITRILE] | 355 to 358 | 150 | 1.2 |
| N#Cc1c(O)ccc2c1oc1c3ccc(O)cc3ccc21 [Example 7, 3,9-DIHYDROXY-BENZO[B]NAPHTHO[2,1-D]FURAN-10-CARBONITRILE] | > 300 | 55 | 3 |
| Oc1ccc2c(c1)OCc1c-2oc2c(Br)cc(O)cc12 [Example 11, 10-BROMO-6H-BENZO[4,5]FURO[3,2-C]CHROMENE-3,8-DIOL] | – | 42 | 1 |
| Oc1ccc2c(c1)CCc1c-2oc2cc(O)ccc12 [Example 1, 5,6-DIHYDRO-BENZO[B]NAPHTHO[2,1-D]FURAN-3,9-DIOL] | – | 18 | 3 |
| N#Cc1cc(O)cc2c3c(oc12)-c1ccc(O)cc1CCC3 [Example 5, 3,9-DIHYDROXY-6,7-DIHYDRO-5H-12-OXA-DIBENZO[A,E]AZULEN-11-CARBONITRILE] | – | 1500 | 17 |
| Oc1ccc2c(ccc3c4ccc(O)cc4oc23)c1 [Example 2, BENZO[B]NAPHTHO[2,1-D]FURAN-3,9-DIOL] | – | 12 | 1 |
